{"source": "paper PMC12491715", "about": "(Acta Pharmaceutica Sinica. B, 2025)", "key": {"[1]": {"experiment": "Thermodynamic solubility", "format": "physicochemical", "settings": "thermodynamic from solid", "method": "(§1) The supernatants were diluted 1:5 with 50% MeCN or used directly for UPLC analysis (calibration curve was constructed from 0.5–100 mg/L standard solutions of compound 8)."}, "[2]": {"experiment": "pKa from solubility and partition measurements", "format": "physicochemical", "settings": "break in the logP vs. pH and log(solubility) vs. pH plot", "method": "as §1\nShake-flask partition coefficient measurement was done according to OECD guideline 107 (27. 7. 1995) and EPA OPPTS 830.7550 guideline (1996). Briefly, PBS pH 7.4 buffer (50 mL) and n-octanol (50 mL) were thoroughly shaken to ensure saturation of both phases and left to separate. Compound 8 stock solution in n-octanol (approx. 1000 mg/L) was accurately pipetted into Eppendorf tubes (500, 1000, 500 μL, respectively) and n-octanol-saturated PBS pH 7.4 buffer (500, 500, 1000 μL, respectively) was added. Each solvent ratio was done in duplicates. The Eppendorf tubes were thoroughly shaken to ensure partition and centrifuged (5000 × g, 10 min) to separate the phases. Water phase (carefully sampled using needle and syringe) was transferred to HPLC vials directly, whereas n-octanol phases were diluted with MeCN (10–50×) prior to analysis. Additional dilutions were carried out, if needed."}, "[3]": {"biological_target": "T1, AChE (Mus musculus, UniProt P21836)", "T1 construct": "from tissue; host or cells: mouse serum (C57BL/6JRccHsd)", "T1 sequence (P21836 32-614)": "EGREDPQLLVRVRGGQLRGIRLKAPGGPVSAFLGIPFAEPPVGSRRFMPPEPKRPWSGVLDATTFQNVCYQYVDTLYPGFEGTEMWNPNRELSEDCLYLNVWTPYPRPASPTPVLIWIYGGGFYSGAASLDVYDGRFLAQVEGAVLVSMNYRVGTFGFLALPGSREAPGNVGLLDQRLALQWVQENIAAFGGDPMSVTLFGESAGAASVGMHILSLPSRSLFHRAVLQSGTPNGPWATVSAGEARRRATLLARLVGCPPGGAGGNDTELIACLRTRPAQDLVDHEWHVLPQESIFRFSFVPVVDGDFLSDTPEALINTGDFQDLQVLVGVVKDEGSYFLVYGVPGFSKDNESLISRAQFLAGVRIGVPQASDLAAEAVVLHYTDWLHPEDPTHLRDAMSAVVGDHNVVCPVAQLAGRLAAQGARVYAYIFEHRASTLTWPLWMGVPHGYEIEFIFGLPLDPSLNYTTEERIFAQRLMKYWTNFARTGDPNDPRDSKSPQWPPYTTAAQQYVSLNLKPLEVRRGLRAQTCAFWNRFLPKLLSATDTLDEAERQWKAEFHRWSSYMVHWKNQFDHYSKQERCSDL", "experiment": "Cholinesterase inhibition upon repeated dosing, serum AChE", "format": "in vivo, C57BL/6JRccHsd mice", "source_text": "The 12 mice used in this pilot study were 9–14 months old male wild-type C57BL/6JRccHsd mice bred in the Laboratory of Animal Genomics at the Faculty of Veterinary Medicine, University of Ljubljana, or purchased from Envigo RMS Holding Corp. Mice were conventionally bred in open polycarbonate cages (Tecniplast, Buguggiate, Italy) and provided with wood chip bedding (Lignocel®, Rettenmaier and Sons, Germany). Mice were kept under standard conditions, including a 12:12 dark–light cycle (LED, CCT 3000 k, with no more than 25 lux above the cage), a temperature range of 21–24 °C, and humidity between 50%–60%. They were fed irradiated rodent diet (Teklad global 16% protein rodent diet®, BN 2916, Envigo, Udine, Italy) and had access to drinkable tap water ad libitum. Due to the nature of this pilot study, the mice were housed individually. The experimental design was evaluated by the National Ethics Committee for Animal Experiments and approved by the Veterinary Administration of the Republic of Slovenia (document no. U34401-10/2021/8, with amendments U34401-10/2021/13 and U34401-10/2021/1).\nBefore the start of study, blood was drawn from the submandibular vein (facial vein) of the animals under isoflurane inhalation anesthesia (Isoflurin®, VetPharma, Spain) using a 5 mm lancet (Goldenrod Animal Sterile, MEDIpoint, Inc., NY, USA), collected in a microtube (Eppendorf, Safe-Lock tube, 0.5 mL, Eppendorf AG, Germany) and allowed to clot. After approximately 1 h, the blood was centrifuged at 6000 × g for 15 min at 4 °C to obtain the sera, which were stored at –80 °C until analysis.\nSeven animals received the 1 mg/kg dose of compound 8, and five animals received the 5 mg/kg dose of compound 8. Compound 8 was prepared as a stock solution in 100% MeCN (5 and 10 mg/mL) and kept refrigerated for the duration of the study. The dosages were prepared as follows: based on the animal’s body weight, a calculated volume of compound 8 stock solution was accurately pipetted onto a cubic piece (approx. 50 mg) of sterilized toast (Ölz multigrain toast, Rudolf Ölz Meisterbäcker GmbH & Co KG, Austria), and left to dry at room temperature for 5 min. Subsequently, 25 μL of 50% sucrose in distilled water were added at the same site to mask the bitter taste of compound 8. These dosage units were prepared twice a week during the study and stored in a closed glass petri dish at room temperature until use. […] Compound 8 was administered in this way for 27 days, eliminating the need for repeated handling and injection. The animals were observed daily for general activity level, hair coat quality or other abnormal behavior or clinical signs.\n24 h after the last dose was administered, the mice were humanly euthanized under isoflurane inhalation anesthesia (Isoflurin®, VetPharma, Spain) and the blood was withdrawn from the left ventricle using a syringe, collected in a microtube (Eppendorf, Safe-Lock tube, 0.5 mL, Eppendorf AG, Germany) and allowed to clot. After approximately 1 h, the blood was centrifuged at 6000 × g for 15 min at 4 °C to obtain the sera, which were stored at –80 °C until analysis. […] Animal sera (5–10 μL) were diluted in 0.5 mmol/L DTNB in 0.1 mol/L sodium phosphate buffer pH 7.4 (total volume 1000 μL), substrate (5 μL of 100 mmol/L, final concentration 0.5 mmol/L) was added, and the increase in absorbance monitored for 3 min. BChE activity was determined using butyrylthiocholine iodide, while AChE activity was determined on isoOMPA-inhibited sera (buffer-diluted sera were preincubated for 25 min with 1 μL of 100 mmol/L isoOMPA–0.1 mmol/L final concentration) using acetylthiocholine iodide (final concentration 0.5 mmol/L). Measurements were performed in triplicate and pairwise compared before and after treatment for each subject (n = 5 per group)."}, "[4]": {"experiment": "Hydrolysis of 8 in human plasma", "format": "in vitro ADME", "source_text": "See Supporting Information Tables S4."}}, "note": "Several values for one entry are separate records, joined by “and”; a condition that tells them apart may be missing. Equal entries are not always repeated. Where two headings read alike, the source gives them in different places."}
{"compound": "CCN(CC)C(=O)n1cnc(C2(CC)Cc3ccccc3C2)c1", "note": "[Compound 8, N,N-Diethyl-4-(2-ethylindan-2-yl)-1H-imidazole-1-carboxamide]", "values": [{"measurement": "solubility at 24 h", "setting": "[1]; 1% Tween 20 in water, aqueous with cosolvent or surfactant or cyclodextrin, 1% Tween 20/water", "result": "615 ± 172", "unit": "µg/mL"}, {"measurement": "solubility at 24 h", "setting": "[1]; PBS, aqueous buffer", "result": "100 ± 20", "unit": "µg/mL"}, {"measurement": "solubility at 24 h", "setting": "[1]; pH 2 solution, pH 2, aqueous buffer", "result": "2420 ± 108", "unit": "µg/mL"}, {"measurement": "solubility at 24 h", "setting": "[1]; pH 4 solution, pH 4, aqueous buffer", "result": "166 ± 12", "unit": "µg/mL"}, {"measurement": "solubility at 24 h", "setting": "[1]; pH 6 solution, pH 6, aqueous buffer", "result": "136 ± 1", "unit": "µg/mL"}, {"measurement": "solubility at 24 h", "setting": "[1]; pH 10 solution, pH 10, aqueous buffer", "result": "103 ± 17", "unit": "µg/mL"}, {"measurement": "solubility at 24 h", "setting": "[1]; water", "result": "115 ± 26", "unit": "µg/mL"}, {"measurement": "pKa", "setting": "[2]", "result": 4.1}, {"measurement": "serum AChE activities at the end of treatment", "setting": "[3]; 1 or 5 mg/kg p.o. once a day for 4 weeks", "result": "unchanged"}, {"measurement": "remaining activity at 1 mg/kg", "setting": "[3]; mouse, po, serum, 1 mg/kg p.o. once a day, individual animals, after vs before treatment, read-out: AChE residual activity", "result": 91.2, "unit": "%"}, {"measurement": "remaining activity at 1 mg/kg", "setting": "[3]; mouse, po, serum, 1 mg/kg p.o. once a day, read-out: AChE residual activity, AVERAGE", "result": 101, "unit": "%"}, {"measurement": "remaining activity at 5 mg/kg", "setting": "[3]; mouse, po, serum, 5 mg/kg p.o. once a day, read-out: AChE residual activity, AVERAGE", "result": 91.2, "unit": "%"}, {"measurement": "AChE residual activity", "setting": "[3]; serum, 1 mg/kg p.o. once a day, individual animals, after vs before treatment, 1 mg/kg", "result": "104.0%±9.7% and 107.1%±22.3%"}, {"measurement": "AChE activity AFTER treatment", "setting": "[3]; serum, 1 mg/kg p.o. once a day, individual animals, 1 mg/kg", "result": "0.9541±0.2227 U/mL and 1.0365±0.0653 U/mL and 0.8481±0.0324 U/mL"}, {"measurement": "AChE residual activity", "setting": "[3]; serum, 5 mg/kg p.o. once a day, individual animals, after vs before treatment, 5 mg/kg", "result": "89.7%±14.6% and 63.0%±13.9% and 121.0%±17.4%"}, {"measurement": "AChE activity AFTER treatment", "setting": "[3]; serum, 5 mg/kg p.o. once a day, individual animals, 5 mg/kg", "result": "0.9258±0.0430 U/mL and 0.7420±0.1450 U/mL and 0.9517±0.0657 U/mL"}, {"measurement": "8 present after 24 h", "setting": "[4]; control experiment, plasma pre-treated with BChE-selective covalent inhibitor isoOMPA", "result": "> 85", "unit": "%"}, {"measurement": "half-life at 20 μg/L", "setting": "[4]; human, plasma, 37 °C, nominal starting concentration 20 μg/L", "result": 300, "unit": "min"}]}
